Several values for one entry are separate records, joined by “and”; a condition that tells them apart may be missing. Identical values can stand only once.
Experiments:
[1] = target: SARS-CoV-2 Main Protease (SARS-CoV-2) (UniProt P0DTD1)
[2] = in vivo, iv
[3] = not given; remark: listed apart in the source
[4] = rat; in vivo; po; 10.0 mg/kg
[5] = mouse; hepatocytes
[6] = mouse; liver_microsomes
[7] = human; liver_microsomes
[8] = rat; plasma
[9] = human; plasma
[10] = dog; liver_microsomes
[11] = mouse; plasma
[12] = cattle; serum
[13] = helaace2
[14] = tested on: SARS-CoV-2 (SARS-CoV-2); settings: helaace2

With `CN(C)C(=O)CNCC1(C(=O)Nc2cncc3ccccc23)CCOc2ccc(Cl)cc21` (configuration not stated) as the compound, how does the logD read?
The logD was 2.7.

What about the IC50 [1] of the same compound?
Its IC50 is 603 nM.

For `N#CC1(CS(=O)(=O)N2Cc3ccc(Cl)cc3C(C(=O)Nc3cncc4ccccc34)C2)CNC1` (configuration not stated), which logD is on record?
Its logD is 1.8.

What about the AUC(0-inf) ([2]; rat, 0.5 mg/kg) of the same compound?
The AUC(0-inf) was 101 ng·h/mL and 104 ng·h/mL.

And the AUC(0-t) ([2]; rat, 0.5 mg/kg)?
Its AUC(0-t) is 99.7 ng·h/mL and 102 ng·h/mL.

And the C0 ([2]; rat, 0.5 mg/kg)?
The C0 was 417 ng/mL and 369 ng/mL.

What about the MRT inf ([2]; rat, 0.5 mg/kg) of the same compound?
Its MRT inf is 24.5 min and 22.7 min.

And the MRT last ([2]; rat, 0.5 mg/kg)?
Its MRT last is 20.7 min and 22.2 min.

And the Vd ([2]; rat, 0.5 mg/kg)?
Its Vd is 1.55 L/kg and 1.68 L/kg.

And the clearance ([2]; rat, 0.5 mg/kg)?
The clearance was 68.6 mL/min/kg and 67.4 mL/min/kg.

And the half-life ([2]; rat, 0.5 mg/kg)?
Its half-life is 20.8 min and 21.5 min.

And the IC50 [1]?
Its IC50 is 169 nM.

Which logD does the source give for `COc1ccc2cncc(NC(=O)C3(OC)CCOc4ccc(Cl)cc43)c2c1` (configuration not stated) here?
The logD was 3.4.

And the AUC(0-inf) ([2]; mouse, 0.5 mg/kg)?
The AUC(0-inf) was 98.2 ng·h/mL and 108 ng·h/mL.

What about the C0 ([2]; mouse, 0.5 mg/kg) of the same compound?
Its C0 is 246 ng/mL and 252 ng/mL.

What about the MRT inf ([2]; mouse, 0.5 mg/kg) of the same compound?
Its MRT inf is 41.5 min and 34.1 min.

And the MRT last ([2]; mouse, 0.5 mg/kg)?
Its MRT last is 30.8 min and 28.1 min.

And the Vd ([2]; mouse, 0.5 mg/kg)?
The Vd was 3.52 L/kg and 2.67 L/kg.

And the clearance ([2]; mouse, 0.5 mg/kg)?
Its clearance is 84.9 mL/min/kg and 77.9 mL/min/kg.

What about the half-life ([2]; mouse, 0.5 mg/kg) of the same compound?
The half-life was 35.6 min and 29 min.

And the IC50 [1]?
Its IC50 is 116 nM and 120 nM.

What does the source list for `COc1ccc2cncc(NC(=O)[C@]3(OC)CCOc4ccc(Cl)cc43)c2c1` (stereo in doubt)?
logD: 3.4; IC50 [1]: 61.2 nM and 76.5 nM and 85.3 nM

With `O=C(Cc1cccc(Cl)c1)Nc1cncc2cccc(F)c12` as the compound, how does the logD read?
Its logD is 3.1.

And the IC50 [1]?
Its IC50 is 1310 nM.

Which logD [3] does the source give for `O=C(Nc1cncc2ccccc12)[C@@H]1CCNc2cc(Cl)c(Cl)cc21` (stereo in doubt) here?
Its logD is 3.4 and 3.54.

And the AUC(0-inf) [4]?
Its AUC(0-inf) is 257 ng·h/mL.

What about the AUC(0-t) [4] of the same compound?
Its AUC(0-t) is 247 ng·h/mL.

And the CL/F [4]?
The CL/F was 653 mL/min/kg.

And the Cmax [4]?
The Cmax was 40.4 ng/mL.

And the MRT last [4]?
Its MRT last is 397 min.

And the Tmax [4]?
Its Tmax is 120 min.

What about the bioavailability [4] of the same compound?
The bioavailability was 10.2% (2×) and 11.9%.

And the half-life [4]?
The half-life was 255 min.

What about the half-life [5] of the same compound?
Its half-life is 83 min.

And the logD?
The logD was 3.8.

What about the half-life [6] of the same compound?
The half-life was 9.3 min.

And the microsomal CLint [6]?
The microsomal CLint was 290 µL/min/mg and 186 µL/min/mg.

What about the microsomal CLint [7] of the same compound?
Its microsomal CLint is 40 µL/min/mg.

What about the AUC(0-inf) ([2]; rat, 0.5 mg/kg) of the same compound?
Its AUC(0-inf) is 198 ng·h/mL and 170 ng·h/mL.

What about the C0 ([2]; rat, 0.5 mg/kg) of the same compound?
Its C0 is 559 ng/mL and 452 ng/mL.

What about the MRT inf ([2]; rat, 0.5 mg/kg) of the same compound?
The MRT inf was 33.1 min and 29.5 min.

And the MRT last ([2]; rat, 0.5 mg/kg)?
The MRT last was 26.2 min and 27.9 min.

And the Vd ([2]; rat, 0.5 mg/kg)?
The Vd was 1.46 L/kg and 1.94 L/kg.

What about the clearance ([2]; rat, 0.5 mg/kg) of the same compound?
The clearance was 49.6 mL/min/kg and 60.7 mL/min/kg.

What about the AUC(0-inf) ([2]; rat, 1.0 mg/kg) of the same compound?
The AUC(0-inf) was 220 ng·h/mL and 249 ng·h/mL.

And the C0 ([2]; rat, 1.0 mg/kg)?
The C0 was 324 ng/mL and 410 ng/mL.

And the MRT inf ([2]; rat, 1.0 mg/kg)?
Its MRT inf is 44.1 min and 46 min.

What about the MRT last ([2]; rat, 1.0 mg/kg) of the same compound?
The MRT last was 44.8 min and 42.7 min.

And the Vd ([2]; rat, 1.0 mg/kg)?
Its Vd is 3.49 L/kg and 2.99 L/kg.

And the clearance ([2]; rat, 1.0 mg/kg)?
The clearance was 75.9 mL/min/kg and 68 mL/min/kg.

What about the half-life ([2]; rat, 1.0 mg/kg) of the same compound?
Its half-life is 38.2 min and 32.5 min.

What about the fraction unbound [8] of the same compound?
The fraction unbound was 0.033 (2×) and 0.029.

What about the recovery [8] of the same compound?
Its recovery is 98.4%.

And the fraction unbound [9]?
The fraction unbound was 0.049 (2×) and 0.023.

What about the recovery [9] of the same compound?
Its recovery is 105%.

And the half-life [10]?
The half-life was 27.9 min.

What about the microsomal CLint [10] of the same compound?
Its microsomal CLint is 62.2 µL/min/mg.

And the IC50 [1]?
The IC50 was < 50 nM and 47.4 nM.

And the fraction unbound [11]?
Its fraction unbound is 0.039.

And the recovery [11]?
The recovery was 98.1%.

What about the fraction unbound [12] of the same compound?
The fraction unbound was 0.584.

What about the recovery [12] of the same compound?
Its recovery is 70.6%.

Which CC50 [13] does the source give for `CCC(CC)COC(=O)[C@H](C)NP(=O)(OC[C@H]1O[C@@](C#N)(c2ccc3c(N)ncnn23)[C@H](O)[C@@H]1O)Oc1ccccc1` (stereo in doubt) here?
Its CC50 is 10800 nM and 27000 nM and 16400 nM.

Which EC50 [14] does the source give for `Cc1cccc(/C=N/Nc2cc(N3CCOCC3)nc(OCCc3ccccn3)n2)c1` here?
The EC50 was < 10 nM and 14.7 nM and 22.9 nM.

And the EC90 [14]?
The EC90 was 158 nM and 70.8 nM and 82.9 nM.

Which AUC(0-inf) [4] does the source give for `O=C(Nc1cncc2ccccc12)C1CCS(=O)(=O)c2ccc(Cl)cc21` (configuration not stated) here?
Its AUC(0-inf) is 14300 ng·h/mL.

And the AUC(0-t) [4]?
The AUC(0-t) was 14300 ng·h/mL.

What about the CL/F [4] of the same compound?
The CL/F was 11.9 mL/min/kg.

What about the MRT inf [4] of the same compound?
The MRT inf was 205 min.

And the MRT last [4]?
Its MRT last is 205 min.

What about the Tmax [4] of the same compound?
The Tmax was 60 min.

What about the half-life [4] of the same compound?
The half-life was 115 min.

And the logD?
Its logD is 2.

What about the microsomal CLint [7] of the same compound?
The microsomal CLint was 10 µL/min/mg.

And the AUC(0-inf) ([2]; mouse, 0.5 mg/kg)?
Its AUC(0-inf) is 192 ng·h/mL and 207 ng·h/mL.

What about the AUC(0-t) ([2]; mouse, 0.5 mg/kg) of the same compound?
The AUC(0-t) was 190 ng·h/mL and 204 ng·h/mL.

And the C0 ([2]; mouse, 0.5 mg/kg)?
Its C0 is 460 ng/mL and 586 ng/mL.

What about the MRT inf ([2]; mouse, 0.5 mg/kg) of the same compound?
Its MRT inf is 26.5 min and 25.2 min.

What about the MRT last ([2]; mouse, 0.5 mg/kg) of the same compound?
Its MRT last is 25.1 min and 23.6 min.

And the Vd ([2]; mouse, 0.5 mg/kg)?
The Vd was 1.09 L/kg and 0.972 L/kg.

What about the clearance ([2]; mouse, 0.5 mg/kg) of the same compound?
The clearance was 41.3 mL/min/kg and 38.6 mL/min/kg.

What about the half-life ([2]; mouse, 0.5 mg/kg) of the same compound?
Its half-life is 18.4 min and 19.9 min.

What about the AUC(0-inf) ([2]; rat, 2.0 mg/kg) of the same compound?
The AUC(0-inf) was 2890 ng·h/mL.

And the AUC(0-t) ([2]; rat, 2.0 mg/kg)?
Its AUC(0-t) is 2850 ng·h/mL and 2840 ng·h/mL.

What about the C0 ([2]; rat, 2.0 mg/kg) of the same compound?
The C0 was 1400 ng/mL and 1460 ng/mL.

What about the MRT inf ([2]; rat, 2.0 mg/kg) of the same compound?
Its MRT inf is 112 min and 98.4 min.

What about the MRT last ([2]; rat, 2.0 mg/kg) of the same compound?
Its MRT last is 92.4 min and 101 min.

And the Vd ([2]; rat, 2.0 mg/kg)?
Its Vd is 1.13 L/kg and 1.29 L/kg.

And the clearance ([2]; rat, 2.0 mg/kg)?
Its clearance is 11.5 mL/min/kg and 11.6 mL/min/kg.

What about the half-life ([2]; rat, 2.0 mg/kg) of the same compound?
The half-life was 78 min and 88.2 min.

And the fraction unbound [8]?
Its fraction unbound is 0.2.

And the recovery [8]?
Its recovery is 98%.

What about the fraction unbound [9] of the same compound?
Its fraction unbound is 0.106 and 0.125.

What about the recovery [9] of the same compound?
The recovery was 96.9%.

And the half-life [10]?
Its half-life is 69 min.

What about the IC50 [1] of the same compound?
Its IC50 is 288 nM.

— the COVID Moonshot data (paper PMC7615835)
